Test results from US10730849B2, “Benzo[b]thiophene compounds as STING agonists” (MERCK SHARP & DOHME CORP., priority 2016, dated 2020).

Tests used:
[1] = biological target: full-length HAQ STING (Homo sapiens (Human), UniProt Q86WV6, G230A/H232R/R293Q/R71H); experiment: 3H-cGAMP filtration binding assay (HAQ STING); conditions: competition with tritiated cGAMP, HAQ STING membrane
Text: The ability of compounds to bind STING is quantified by the ability to compete with tritiated cGAMP ligand for human STING receptor membrane using a radioactive filter-binding assay. The binding assay employs STING receptor obtained from Hi-Five cell membranes overexpressing full-length HAQ STING prepared in-house and tritiated cGAMP ligand also purified in-house.
The ability of compounds to bind STING is quantified by their ability to compete with tritiated cGAMP ligand for human STING receptor membrane using a radioactive filter-binding assay. The binding assay employs STING receptor obtained from Trichoplusia ni cell membranes (T. ni; Expression Systems, cat #94-002F, www.exressionsystems.com) overexpressing full-length HAQ STING and tritiated cGAMP ligand.
The basic HAQ STING filtration assay protocol is as follows:
Compound and membrane then preincubated for 60 min at RT to allow compound binding to equilibrate. Following equilibration, 8 nM of [^3H]c-GAMP ligand was prepared by diluting into assay buffer, and 50 uL of this working stock was then manually added to each well of the assay plate. […] The filter plates were then dried at 55° C. for 30 min using a pressurized oven before 30 uL of ULTIMA GOLD F scintillate was added to each well. Tritium levels for each reaction well were then measured using a PerkinElmer TopCount plate reader.
(§1) After normalization to controls, the percent activity for each compound concentration was calculated by measuring the amount of remaining radioactivity. The plot of percent activity versus the log of compound concentration was fit with a 4-parameter dose response equation to calculate EC50 values.

[2] = biological target: full-length WT STING (Homo sapiens (Human), UniProt Q86WV6, H232R); experiment: 3H-cGAMP filtration binding assay (WT STING); conditions: for EC50: competition with tritiated cGAMP, WT STING membrane
Sequence of full-length WT STING (Q86WV6 other isoform, or with tags, fused parts or gaps H232R (already in the parent)): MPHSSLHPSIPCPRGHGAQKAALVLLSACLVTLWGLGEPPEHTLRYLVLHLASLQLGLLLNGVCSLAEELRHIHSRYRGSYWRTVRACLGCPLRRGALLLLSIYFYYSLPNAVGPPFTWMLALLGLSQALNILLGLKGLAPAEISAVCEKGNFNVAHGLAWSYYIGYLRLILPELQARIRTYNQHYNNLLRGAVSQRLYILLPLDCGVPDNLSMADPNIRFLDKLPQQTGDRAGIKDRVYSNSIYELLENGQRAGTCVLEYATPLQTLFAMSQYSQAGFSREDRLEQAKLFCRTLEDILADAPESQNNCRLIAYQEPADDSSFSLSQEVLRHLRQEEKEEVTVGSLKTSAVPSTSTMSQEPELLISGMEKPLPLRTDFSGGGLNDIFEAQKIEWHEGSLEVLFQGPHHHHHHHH
Text: The ability of compounds to bind STING is quantified by their ability to compete with tritiated cGAMP ligand for human STING receptor membrane using a radioactive filter-binding assay. The binding assay employs STING receptor obtained from Trichoplusia ni cell membranes (T. ni; Expression Systems, cat #94-002F, www.expressionsystems.com) overexpressing full-length WT STING and tritiated cGAMP ligand.
The basic WT STING filtration assay protocol is as follows:
The filter plates were then dried at 55° C. for 30 min using a pressurized VWR oven before 30 uL of ULTIMA GOLD F scintillate was added to each well. Tritium levels for each reaction well were then measured using a PerkinElmer TopCount plate reader.
as §1

[3] = tested on: THP1 cells; experiment: IFN-β secretion in THP1 cell culture (5 h); format: cell-based, human; conditions: relative to 30 uM cGAMP
Method: The ability of compounds to stimulate the secretion of interferon-beta from THP1 cells was measured using a human IFN-3 AlphaLISA kit (Perkin Elmer, Cat. No. AL265F). The basic protocol is as follows:
The cell viability and count was ascertained using a Beckman Coulter V-Cell XR cell counter. The cells suspension was centrifuged at 200×g for 5 min at RT. Cells were resuspended to a density of 0.8×10^6/mL in 37° C. assay medium. Subsequent liquid transfers were performed using either a Matrix electronic multichannel pipette or an Agilent Bravo Automated Liquid Handling Platform.
The assay was started by dispensing 40 μL of the previously prepared cell suspension into the wells of the plate containing compounds. After 5 h incubation at 37° C., 5% CO2 in a humidified atmosphere, the plate of cells and compounds was centrifuged at 200×g for 5 min at RT. […] To these supernatant-containing wells was added 10 μL of 5× Anti-Analyte Acceptor beads ([…] of AlphaLISA HiBlock Buffer) and incubated for 30 min at RT while shaking on an orbital plate shaker. To each well was added 10 μL of 5× Biotinylated Antibody Anti-analyte (5 nM in AlphaLISA HiBlock Buffer) and incubated on an orbital plate shaker for 60 min at RT or overnight at 4° C. To each well was added 25 μL of 2× SA-Donor beads ([…] in AlphaLISA HiBlock Buffer) and incubated for 30-45 min at RT in the dark while shaking on an orbital plate shaker. The plate was then read on a Perkin Elmer Envision (λex=680 nm, […]). The percent effect of the AlphaLISA signal at each compound concentration was calculated based on 30 uM cGAMP positive controls and 0.3% DMSO negative controls. The plot of percent effect versus the log of compound concentration was fit with a 4-parameter concentration response equation to calculate EC50 values.
Compounds of the disclosure were evaluated for IFN-3 secretion in THP1 cell culture as described above.

Sequence of full-length HAQ STING (Q86WV6 other isoform, or with tags, fused parts or gaps, stated change not applied): as the sequence (Q86WV6 other isoform, or with tags, fused parts or gaps H232R (already in the parent)) above, with R71H, G230A, R293Q counted along it

## COc1cc2cc(C(=O)CC(C)C(=O)O)sc2cc1OC (stereo not drawn) [Example 35, 4-(5,6-dimethoxybenzo[b]thiophen-2-yl)-2-methyl-4-oxobutanoic acid]
[1]
  EC50: 5.55 µM
[2]
  EC50: 7.67 µM
[3]
  % Effect at 30 μM relative to 2’3’-cGAMP: 57%

## COc1cc2cc(C(=O)C3CC3C(=O)O)sc2cc1OC (stereo not drawn) [Example 4, 2-(5,6-Dimethoxybenzo[b]thiophene-2-carbonyl)cyclopropane carboxylic acid]
[1]
  EC50: 1.9 µM
[2]
  EC50: 1.14 µM
[3]
  % Effect at 30 μM relative to 2’3’-cGAMP: 34%

## COc1cc2sc(C(=O)[C@@H]3C[C@@H]3C(=O)O)cc2c(F)c1OC [Example 52, (1S,2R)-2-(4-fluoro-5,6-dimethoxybenzo[b]thiophene-2-carbonyl)cyclopropane-1-carboxylic acid]
[1]
  EC50: 0.599 µM
[2]; WT STING, compound at 20 uM
  inhibition at 20 µM: 101%
[3]
  % Effect at 30 μM relative to 2’3’-cGAMP: 142%

## Cc1cc2cc(C(=O)C[C@H](C)C(=O)O)sc2cc1Br [Example 29, (S)-4-(6-bromo-5-methylbenzo[b]thiophen-2-yl)-2-methyl-4-oxobutanoic acid]
[1]
  EC50: 13.8 µM
[2]; WT STING, compound at 20 uM
  inhibition at 20 µM: 16%
[3]
  % Effect at 30 μM relative to 2’3’-cGAMP: 9%

## COc1cc2cc(C(=O)CC(C(=O)O)C(C)C)sc2cc1OC (stereo not drawn) [Example 2, 4-(5,6-Dimethoxybenzo[b]thiophen-2-yl)-2-isopropyl-4-oxobutanoic acid]
[1]
  EC50: 9.59 µM
[2]
  EC50: 11.2 µM
[3]
  % Effect at 30 μM relative to 2’3’-cGAMP: 149%

## COc1cc2cc(C(=O)C[C@H](C)C(=O)O)sc2cc1OC [Example 11, (S)-4-(5,6-Dimethoxybenzo[b]thiophen-2-yl)-2-methyl-4-oxobutanoic acid]
[1]
  EC50: 2.73 µM
[2]
  EC50: 3.87 µM
[3]
  % Effect at 30 μM relative to 2’3’-cGAMP: 132%

## COc1cc2sc(C(=O)CCC(=O)O)c(Cl)c2cc1OC [Example 27, 4-(3-chloro-5,6-dimethoxybenzo[b]thiophen-2-yl)-4-oxobutanoic acid]
[1]
  EC50: 13.2 µM
[2]; WT STING, compound at 20 uM
  inhibition at 20 µM: 19%
[3]
  % Effect at 30 μM relative to 2’3’-cGAMP: 14%

## COc1cc2sc(C(=O)[C@H]3C[C@H]3C(=O)O)cc2c(F)c1OC [Example 51, (1R,2S)-2-(4-fluoro-5,6-dimethoxybenzo[b]thiophene-2-carbonyl)cyclopropane-1-carboxylic acid]
[1]
  EC50: 17.8 µM
[2]; WT STING, compound at 20 uM
  inhibition at 20 µM: 3%
[3]
  % Effect at 30 μM relative to 2’3’-cGAMP: 31%

## CCOc1cc2sc(C(=O)C[C@H](C)C(=O)O)cc2cc1Cl [Example 33, (S)-4-(5-chloro-6-ethoxybenzo[b]thiophen-2-yl)-2-methyl-4-oxobutanoic acid]
[1]
  EC50: 6.46 µM
[2]; WT STING, compound at 20 uM
  inhibition at 20 µM: 30%
[3]
  % Effect at 30 μM relative to 2’3’-cGAMP: 25%

## Cc1cc2sc(C(=O)C[C@H](C)C(=O)O)cc2cc1Br [Example 34, (S)-4-(5-bromo-6-methylbenzo[b]thiophen-2-yl)-2-methyl-4-oxobutanoic acid]
[1]
  EC50: 10.4 µM
[2]; WT STING, compound at 20 uM
  inhibition at 20 µM: 18%
[3]
  % Effect at 30 μM relative to 2’3’-cGAMP: 34%

## C=Cc1cc2cc(C(=O)C[C@H](C)C(=O)O)sc2cc1OC [Example 41, (S)-4-(6-methoxy-5-vinylbenzo[b]thiophen-2-yl)-2-methyl-4-oxobutanoic acid]
[1]
  EC50: 5.7 µM
[2]
  EC50: 14.7 µM
[3]
  % Effect at 30 μM relative to 2’3’-cGAMP: 312%

## CCC(CC(=O)c1cc2c(F)c(OC)c(OC)cc2s1)C(=O)O (stereo not drawn) [Example 50, 2-ethyl-4-(4-fluoro-5,6-dimethoxybenzo[b]thiophen-2-yl)-4-oxobutanoic acid]
[1]
  EC50: 0.89 µM
[2]
  EC50: 2.14 µM
[3]
  % Effect at 30 μM relative to 2’3’-cGAMP: 115%

## CCc1cc2sc(C(=O)C[C@H](C)C(=O)O)cc2cc1OC [Example 21, (S)-4-(6-Ethyl-5-methoxybenzo[b]thiophen-2-yl)-2-methyl-4-oxobutanoic acid]
[1]
  EC50: 6.34 µM
[2]
  EC50: 14.3 µM
[3]
  % Effect at 30 μM relative to 2’3’-cGAMP: 162%

## C=Cc1cc2cc(C(=O)CCC(=O)O)sc2cc1OC [Example 18, 4-(6-Methoxy-5-vinylbenzo[b]thiophen-2-yl)-4-oxobutanoic acid]
[1]
  EC50: 12.5 µM
[2]; WT STING, compound at 20 uM
  inhibition at 20 µM: 21%
[3]
  % Effect at 30 μM relative to 2’3’-cGAMP: 273%

## COc1cc2sc(C(=O)CCC(=O)O)cc2cc1Cl [Example 7, 4-(5-Chloro-6-methoxybenzo[b]thiophen-2-yl)-4-oxobutanoic acid]
[1]
  EC50: 9.34 µM
[2]; WT STING, compound at 20 uM
  inhibition at 20 µM: 20%
[3]
  % Effect at 30 μM relative to 2’3’-cGAMP: 290%

## COc1cc2cc(C(=O)CCC(=O)O)sc2cc1OC(F)F [Example 53, 4-(6-(difluoromethoxy)-5-methoxybenzo[b]thiophen-2-yl)-4-oxobutanoic acid]
[1]
  EC50: 13.7 µM
[2]; WT STING, compound at 20 uM
  inhibition at 20 µM: 7%
[3]
  % Effect at 30 μM relative to 2’3’-cGAMP: 182%

## COc1cc2cc(C(=O)C[C@H](C)C(=O)O)sc2cc1C [Example 22, (S)-4-(5-methoxy-6-methylbenzo[b]thiophen-2-yl)-2-methyl-4-oxobutanoic acid]
[1]
  EC50: 8.81 µM
[2]
  EC50: 17.1 µM
[3]
  % Effect at 30 μM relative to 2’3’-cGAMP: 43%

## COc1cc2cc(C(=O)C[C@H](C)C(=O)O)sc2cc1O [Example 43, (S)-4-(6-hydroxy-5-methoxybenzo[b]thiophen-2-yl)-2-methyl-4-oxobutanoic acid]
[1]
  EC50: 1.2 µM
[2]
  EC50: 4.11 µM
[3]
  % Effect at 30 μM relative to 2’3’-cGAMP: 56%

## (S)-4-(5,6-dimethylbenzo [b]thiophen-2-y1)- 2-methyl-4- oxobutanoic acid [Example 31]
[1]
  EC50: 5.94 µM
[2]; WT STING, compound at 20 uM
  % Inh @ 20 uM: 10% Inh @ 20 μM
[3]
  % Effect at 30 μM relative to 2’3’-cGAMP: 24%

## COc1cc2cc(C(=O)CC(C(=O)O)C3CC3)sc2cc1OC (stereo not drawn) [Example 3, 2-Cyclopropyl-4-(5,6-dimethoxybenzo[b]thiophen-2-yl)-4-oxobutanoic acid]
[1]
  EC50: 10.6 µM
[2]; WT STING, compound at 20 uM
  inhibition at 20 µM: 41%
[3]
  % Effect at 30 μM relative to 2’3’-cGAMP: 59%

## C#Cc1cc2cc(C(=O)CCC(=O)O)sc2cc1OC [Example 36, 4-(5-Ethynyl-6-methoxybenzo[b]thiophen-2-yl)-4-oxobutanoic acid]
[1]
  EC50: 14.4 µM
[2]; WT STING, compound at 20 uM
  inhibition at 20 µM: 9%
[3]
  % Effect at 30 μM relative to 2’3’-cGAMP: 11%

## COc1cc2cc(C(=O)C[C@H](C)C(=O)O)sc2cc1Br [Example 15, (S)-4-(6-bromo-5-methoxybenzo[b]thiophen-2-yl)-2-methyl-4-oxobutanoic acid]
[1]
  EC50: 0.894 µM
[2]
  EC50: 0.894 µM
[3]
  % Effect at 30 μM relative to 2’3’-cGAMP: 115%
